Measured values: patent US20090123445A1, “Surfactin-Containing Compositions for Controlling Scab Disease in Agricultural Products” (priority 2005, published 2009)
Where two headings read alike, the source gives them in different places. Numbered stars: 1 amine (or outer) side, 2 acyl side, 3 side chain; on linkers, the order of the positions; unused ones are H or OH. Bridge positions count the residues as written; N and C are the ends. Square brackets hold non-standard residues; d marks the D form. Peptide text beside a SMILES is read from it. X1 = CC(C)CCCCCCCCC[C@H](CC(=O)[*:1])O[*:2]

Experiments:
[1] = tested on: Streptomyces turgidiscabies 91SY-12; assay: Antibacterial activity against potato scab pathogen: surfactin sodium in agar medium; format: cell-based; conditions: 30° C., 3 days
Description: Each agar medium was smeared with a spore suspension of the potato scab pathogen Streptomyces turgidiscabies 91SY-12 (hereinafter referred to as “the strain 91SY-12”) and incubated at 30° C. for 3 days.

[2] = tested on: plant pathogens; conditions: surfactin alone; reported in JP 06-135811 A; cited from earlier work
[3] = tested on: Streptomyces turgidiscabies 91SY-12; conditions: 50 μl per paper disk, 30° C., 6 days
[4] = tested on: Streptomyces turgidiscabies 91SY-12; conditions: 10 mg/ml in methanol, 30° C., 11 days
Text: In the same manner as shown in Example 2, the agar medium was smeared with a spore suspension of the strain 91SY-12, and 4 paper disks (8 mm diameter) were placed thereon.

Molecule	inhibition of spore formation ([1]; 10 μg/ml in agar medium)	inhibition of spore formation ([1]; 50 μg/ml in agar medium)	inhibition of spore formation ([1]; 100 μg/ml in agar medium)	antibacterial action against plant pathogens [2]	inhibitory effect on spore formation ([3]; 0.01 mg/ml in methanol)	inhibitory effect on spore formation ([3]; 0.1 mg/ml in methanol)	inhibitory effect on spore formation ([3]; 1.0 mg/ml in methanol)	inhibition of spore formation ([4]; 10 μl per paper disk)	inhibition of spore formation ([4]; 50 μl per paper disk)	inhibition of spore formation ([4]; 100 μl per paper disk)
CC(C)CCCCCCCCC[C@@H]1CC(=O)N[C@@H](CCC(=O)O)C(=O)N[C@@H](CC(C)C)C(=O)N[C@H](CC(C)C)C(=O)N[C@@H](C(C)C)C(=O)N[C@@H](CC(=O)O)C(=O)N[C@H](CC(C)C)C(=O)N[C@@H](CC(C)C)C(=O)O1 [surfactin sodium] (EL[dL]VD[dL]L; linker N-C via X1)	tendency to inhibit spore formation	tendency to inhibit spore formation	tendency to inhibit spore formation							
surfactin				no antibacterial action	no inhibitory effect on spore formation	inhibited, albeit weakly	inhibited strongly	strongly inhibited	strongly inhibited	strongly inhibited
